Test results taken from the supplement of paper PMC13207355.

Experiments:
Conditions in all cases: exposure time: 72 h
[1] = tested on: E13 (patient-derived glioblastoma stem cells of classical subtype); assay: phenotypic distance (Euclidean, principal components) from DMSO controls (arbitrary units); higher = stronger morphological change
[2] = tested on: E21 (patient-derived glioblastoma stem cells of mesenchymal subtype); assay: as above
[3] = tested on: E28 (patient-derived glioblastoma stem cells of classical subtype); assay: as above
[4] = tested on: E31 (patient-derived glioblastoma stem cells of proneural subtype); assay: as above
[5] = tested on: E34 (patient-derived glioblastoma stem cells of proneural subtype); assay: as above
[6] = tested on: FT3469 (normal neural stem cell line); assay: as above
[7] = tested on: E57 (patient-derived glioblastoma stem cells of mesenchymal subtype); assay: as above
[8] = tested on: E13; assay: surviving fraction (nuclei count normalised to DMSO); higher = more cells surviving (less toxic)
[9] = tested on: E21; assay: as above
[10] = tested on: E28; assay: as above
[11] = tested on: E31; assay: as above
[12] = tested on: E34; assay: as above
[13] = tested on: FT3469; assay: as above
[14] = tested on: E57; assay: as above
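Throughout, for phenotypic distance (Euclidean, principal components) from DMSO controls: cell Painting imaging in 384-well plates, CellProfiler features reduced to at least 20 principal components, Euclidean distance versus same-plate DMSO vehicle wells (0.1% v/v), median over six images per well.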
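Throughout, for surviving fraction (nuclei count normalised to DMSO): nuclei counted by high-content imaging of Hoechst-stained cells in laminin-coated 384-well plates, relative to 0.1% DMSO vehicle wells, with staurosporine as cell-death control.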

Cc1cc(C(C)(C)CC(C)(C)C)ccc1OCCOCC[N+](C)(C)Cc1ccccc1 [Methyl benzethonium chloride]
Conditions	phenotypic distance	surviving fraction
[1], 4.1 nM	0.567	–
[1], 37 nM	0.631	–
[1], 111.1 nM	0.7	–
[1], 333.3 nM	1.46	–
[1], 1000 nM	2.26	–
[1], 3000 nM	7.09	–
[2], 4.1 nM	0.505	–
[2], 37 nM	0.8	–
[2], 111.1 nM	1.42	–
[2], 333.3 nM	1.89	–
[2], 1000 nM	1.88	–
[2], 3000 nM	7.45	–
[3], 4.1 nM	0.909	–
[3], 37 nM	0.85	–
[3], 111.1 nM	0.845	–
[3], 333.3 nM	1.63	–
[3], 1000 nM	1.45	–
[3], 3000 nM	5.99	–
[4], 4.1 nM	0.64	–
[4], 37 nM	1.09	–
[4], 111.1 nM	0.959	–
[4], 333.3 nM	1.67	–
[4], 1000 nM	1.56	–
[4], 3000 nM	10.6	–
[5], 4.1 nM	0.669	–
[5], 37 nM	1.03	–
[5], 111.1 nM	3.75	–
[5], 333.3 nM	1.62	–
[5], 1000 nM	1.37	–
[5], 3000 nM	2.97	–
[6], 4.1 nM	0.966	–
[6], 37 nM	0.81	–
[6], 111.1 nM	1.14	–
[6], 333.3 nM	1.12	–
[6], 1000 nM	0.916	–
[6], 3000 nM	5.6	–
[7], 4.1 nM	0.767	–
[7], 37 nM	0.775	–
[7], 111.1 nM	0.964	–
[7], 333.3 nM	1.11	–
[7], 1000 nM	1.42	–
[7], 3000 nM	5.11	–
[8], 4.1 nM	–	1.06
[8], 37 nM	–	0.985
[8], 111.1 nM	–	1
[8], 333.3 nM	–	0.905
[8], 1000 nM	–	0.77
[8], 3000 nM	–	0.0607
[9], 4.1 nM	–	1.05
[9], 37 nM	–	1.08
[9], 111.1 nM	–	1.13
[9], 333.3 nM	–	1.09
[9], 1000 nM	–	1.11
[9], 3000 nM	–	0.0579
[10], 4.1 nM	–	1.18
[10], 37 nM	–	1.12
[10], 111.1 nM	–	1.01
[10], 333.3 nM	–	1.03
[10], 1000 nM	–	0.915
[10], 3000 nM	–	0.122
[11], 4.1 nM	–	1.14
[11], 37 nM	–	1.3
[11], 111.1 nM	–	0.971
[11], 333.3 nM	–	1.04
[11], 1000 nM	–	0.959
[11], 3000 nM	–	0.0251
[12], 4.1 nM	–	1.05
[12], 37 nM	–	1.16
[12], 111.1 nM	–	1.28
[12], 333.3 nM	–	1.15
[12], 1000 nM	–	0.97
[12], 3000 nM	–	0.507
[13], 4.1 nM	–	1.08
[13], 37 nM	–	1.23
[13], 111.1 nM	–	1.28
[13], 333.3 nM	–	0.993
[13], 1000 nM	–	0.937
[13], 3000 nM	–	0.135
[14], 4.1 nM	–	1.1
[14], 37 nM	–	1.08
[14], 111.1 nM	–	0.952
[14], 333.3 nM	–	1.08
[14], 1000 nM	–	0.992
[14], 3000 nM	–	0.232

CC(=O)[C@]1(O)Cc2c(O)c3c(c(O)c2[C@@H](O[C@H]2C[C@H](N)[C@H](O)[C@H](C)O2)C1)C(=O)c1ccccc1C3=O [Idarubicin]
Conditions	phenotypic distance	surviving fraction
[1], 4.1 nM	7.02	–
[1], 12.3 nM	6.41	–
[1], 37 nM	6.27	–
[1], 111.1 nM	5.38	–
[1], 333.3 nM	6.31	–
[1], 1000 nM	6.11	–
[1], 3000 nM	6.59	–
[2], 4.1 nM	7.83	–
[2], 12.3 nM	6.13	–
[2], 37 nM	5.05	–
[2], 111.1 nM	5.05	–
[2], 333.3 nM	5.58	–
[2], 1000 nM	5.16	–
[2], 3000 nM	8.48	–
[3], 4.1 nM	2.71	–
[3], 12.3 nM	3.28	–
[3], 37 nM	3.42	–
[3], 111.1 nM	2.57	–
[3], 333.3 nM	3.02	–
[3], 1000 nM	4.74	–
[3], 3000 nM	5.14	–
[4], 4.1 nM	2.69	–
[4], 12.3 nM	2.97	–
[4], 37 nM	3.12	–
[4], 111.1 nM	4.59	–
[4], 333.3 nM	4.15	–
[4], 1000 nM	5.28	–
[4], 3000 nM	4.78	–
[5], 4.1 nM	4.82	–
[5], 12.3 nM	4.66	–
[5], 37 nM	2.72	–
[5], 111.1 nM	2.83	–
[5], 333.3 nM	2.83	–
[5], 1000 nM	5.05	–
[5], 3000 nM	4	–
[6], 4.1 nM	1.93	–
[6], 12.3 nM	1.84	–
[6], 37 nM	1.77	–
[6], 111.1 nM	1.39	–
[6], 333.3 nM	2.3	–
[6], 1000 nM	3.94	–
[6], 3000 nM	5.56	–
[7], 4.1 nM	11.4	–
[7], 12.3 nM	9.36	–
[7], 37 nM	6.52	–
[7], 111.1 nM	6.05	–
[7], 333.3 nM	5.69	–
[7], 1000 nM	6.02	–
[7], 3000 nM	6.32	–
[8], 4.1 nM	–	0.402
[8], 12.3 nM	–	0.404
[8], 37 nM	–	0.255
[8], 111.1 nM	–	0.25
[8], 333.3 nM	–	0.179
[8], 1000 nM	–	0.0911
[8], 3000 nM	–	0.0243
[9], 4.1 nM	–	0.371
[9], 12.3 nM	–	0.371
[9], 37 nM	–	0.165
[9], 111.1 nM	–	0.193
[9], 333.3 nM	–	0.167
[9], 1000 nM	–	0.164
[9], 3000 nM	–	0.0457
[10], 4.1 nM	–	0.386
[10], 12.3 nM	–	0.41
[10], 37 nM	–	0.313
[10], 111.1 nM	–	0.304
[10], 333.3 nM	–	0.271
[10], 1000 nM	–	0.18
[10], 3000 nM	–	0.241
[11], 4.1 nM	–	0.259
[11], 12.3 nM	–	0.226
[11], 37 nM	–	0.179
[11], 111.1 nM	–	0.149
[11], 333.3 nM	–	0.139
[11], 1000 nM	–	0.114
[11], 3000 nM	–	0.072
[12], 4.1 nM	–	0.611
[12], 12.3 nM	–	0.511
[12], 37 nM	–	0.54
[12], 111.1 nM	–	0.538
[12], 333.3 nM	–	0.479
[12], 1000 nM	–	0.448
[12], 3000 nM	–	0.15
[13], 4.1 nM	–	0.654
[13], 12.3 nM	–	0.716
[13], 37 nM	–	0.663
[13], 111.1 nM	–	0.592
[13], 333.3 nM	–	0.495
[13], 1000 nM	–	0.439
[13], 3000 nM	–	0.0825
[14], 4.1 nM	–	0.197
[14], 12.3 nM	–	0.205
[14], 37 nM	–	0.146
[14], 111.1 nM	–	0.166
[14], 333.3 nM	–	0.14
[14], 1000 nM	–	0.124
[14], 3000 nM	–	0.0591
